# “Also recorded” adds a separate entry of the source.
# How the values were obtained:
# [1] = tested on: TLR8-mediated TNF-α production in THP-1 cells; assay: R848-induced TNF-α production in differentiated THP-1 monocytes; assay type: cell-based, human; conditions: 10 μM
# [2] = tested on: TLR8-mediated TNF-α production in PBMC cells; assay: R848-induced TNF-α secretion in PBMCs; assay type: cell-based, human; conditions: 1 μg/mL R848; dose-dependent; 4a at 50 μM
# Excerpt: Peripheral blood mononuclear cells (PBMCs) include lymphocytes (T cells, B cells, and NK cells), monocytes, and dendritic cells expressing various TLRs. TLR7 and TLR8 are both expressed on B cells and monocytes, while DC plasmacytoids (DCps) express only TLR7 and immature DCs (DC11c^+) express only TLR8.
# [3] = tested on: TNF-α production in PBMCs from an AOSD patient; assay: TNF-α level in PBMCs harvested from an AOSD patient; assay type: cell-based, human; conditions: negative control, 40 μM
# Experimental: But there is a lack of appropriate rodent models because TLR8 is not functional in either mice or rats. Therefore, the TLR8 inhibitors of this disclosure were tested in human specimens harvested from patients with osteoarthritis (OA), rheumatoid arthritis (RA), and adult onset-Still's disease (AOSD). It is well established that TNF-α and IL-1β are key cytokines in the process of chronic joint inflammation in cartilage. Therefore, synovial cells were isolated from synovial tissue of patients who underwent joint replacement surgery due to severe OA. Previous studies have indicated these pathological tissues express both TLR7 and TLR8 with elevated production of various cytokines, contributing to extensive articular destruction and functional decline.
# [4] = tested on: TLR8-mediated TNF-α and IL-8 mRNA; assay: RT-PCR of TNF-α and IL-8 mRNA in R848 treated HEK-Blue TLR8 cells; assay type: cell-based, human; conditions: negative control, 10 μM
# Excerpt: R848-induced TLR8 activation results in increased production of the proinflammatory cytokines, such as TNF-α, IL-6 and IL-8.
# [5] = tested on: TNF-α production in PBMCs from RA patients; assay: TNF-α level in PBMCs harvested from RA patients; assay type: cell-based, human; conditions: negative control, up to 80 μM
# human TLR8 = target: T1, human TLR8 (Homo sapiens, UniProt Q9NR97); assay: SEAP reporter assay in HEK-Blue TLR8 cells, R848-induced TLR8 signaling; assay type: cell-based; conditions: up to 20 μM
# T1 construct: expressed in transfected cells; host or cells: HEK-Blue Null1 cells, lentiviral infection
# T1 sequence (Q9NR97 27-1041): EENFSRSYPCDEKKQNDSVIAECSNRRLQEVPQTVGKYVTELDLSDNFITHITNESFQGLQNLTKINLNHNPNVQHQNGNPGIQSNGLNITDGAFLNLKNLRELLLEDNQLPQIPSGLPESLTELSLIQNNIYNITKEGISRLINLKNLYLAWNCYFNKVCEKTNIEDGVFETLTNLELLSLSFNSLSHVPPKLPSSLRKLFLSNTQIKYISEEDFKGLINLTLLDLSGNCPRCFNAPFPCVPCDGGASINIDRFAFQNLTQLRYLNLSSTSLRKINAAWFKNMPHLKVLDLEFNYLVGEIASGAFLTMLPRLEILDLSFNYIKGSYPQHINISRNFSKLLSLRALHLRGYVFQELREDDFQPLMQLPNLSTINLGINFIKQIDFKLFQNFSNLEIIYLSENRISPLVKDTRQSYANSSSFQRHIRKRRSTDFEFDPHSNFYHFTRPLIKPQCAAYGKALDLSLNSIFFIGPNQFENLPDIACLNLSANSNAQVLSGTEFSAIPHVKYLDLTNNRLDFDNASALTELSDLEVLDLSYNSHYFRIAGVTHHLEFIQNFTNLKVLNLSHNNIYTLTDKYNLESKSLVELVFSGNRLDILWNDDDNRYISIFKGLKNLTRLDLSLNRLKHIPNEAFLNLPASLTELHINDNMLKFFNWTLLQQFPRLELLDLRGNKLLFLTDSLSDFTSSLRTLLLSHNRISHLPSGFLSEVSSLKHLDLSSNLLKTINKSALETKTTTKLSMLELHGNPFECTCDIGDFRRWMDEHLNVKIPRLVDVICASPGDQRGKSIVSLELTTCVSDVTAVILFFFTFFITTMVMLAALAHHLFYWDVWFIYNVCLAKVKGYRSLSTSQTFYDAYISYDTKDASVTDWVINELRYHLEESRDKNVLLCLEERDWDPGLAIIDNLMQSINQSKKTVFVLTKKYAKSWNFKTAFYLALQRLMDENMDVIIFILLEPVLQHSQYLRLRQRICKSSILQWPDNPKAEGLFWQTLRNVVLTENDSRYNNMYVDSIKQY
# Experimental: SEAP reporter assay: HEK-Blue TLR8 cells were seeded in tissue culture treated 96-well plates with a density of 7.5×10^4 cells/well in DMEM media supplemented with 10% FBS (phosphatases deactivated with heat). […] Plates are then incubated in humidified incubators containing 5% CO2 at 37° C. for 24 h, after which, 30 μL of culture media was transfer to a new plate and 100 μL of Quanti-Blue (Invivogen) was added, the plate was then incubated at 37° C. till color change (30 min-1 h). Readout of absorbance at 620 nm was quantified using Beckman-Coulter DTX 880 Multimode Detector. […] SEAP assays for each sample were conducted with three biological replicates, each in triplicate.
# To establish a robust high throughput assay for TLR8 inhibitors, the inventors first engineered a cell line stably overexpressing the human TLR8 whose activation can be reported by the Secreted Embryonic Alkaline Phosphatase (SEAP) assay. TLR8-overexpresing HEK-Blue cells were prepared by lentiviral infection of HEK-Blue Null1 cells that have null or low basal expression of endogenous TLR genes. […] The TLR8-mediated NF-κB activation can be assessed by measuring the SEAP activity.
smiles,measurement,setting,value
O=C(O)c1cnn2c(-c3cccc(C(F)(F)F)c3)ccnc12 [Compound 4a],inhibition of R848-induced TNF-α production,[1],failed to show significant inhibition
same,R848-induced TNF-α secretion of PBMCs,[2],not
same,inhibitory activity on TNF-α level in PBMCs from an AOSD patient,[3],did not show notable inhibitory activity
same,inhibition of R848-induced TNF-α and IL-8 mRNA levels,[4],negligible inhibition
same,inhibition of TNF-α level in PBMCs from RA patients,[5],did not show significant inhibition; also recorded: did not show notable inhibitory activity
same,inhibitory activity against TLR8 signaling,human TLR8,did not show any inhibitory activity

# Source: US11466010B2, “Toll-like receptor 8 (TLR8) specific antagonists and methods of making and uses thereof” (The Regents of the University of Colorado, a body corporate, priority 2017, dated 2022)
